# Experimental data taken from patent publication US20250034091A1, “Small molecule inhibitors of lanosterol synthase” (Board of Regents, The University of Texas System, priority 2022, published 2025).
# Where two headings read alike, the source gives them in different places.
# Legend:
# recombinant human LSS = target: T1, recombinant human LSS (Homo sapiens, UniProt P48449); assay: cell-free in vitro reaction with recombinant LSS; type: biochemical
# T1 construct: made in house; host or cells: E. coli
# T1 sequence (P48449 1-732): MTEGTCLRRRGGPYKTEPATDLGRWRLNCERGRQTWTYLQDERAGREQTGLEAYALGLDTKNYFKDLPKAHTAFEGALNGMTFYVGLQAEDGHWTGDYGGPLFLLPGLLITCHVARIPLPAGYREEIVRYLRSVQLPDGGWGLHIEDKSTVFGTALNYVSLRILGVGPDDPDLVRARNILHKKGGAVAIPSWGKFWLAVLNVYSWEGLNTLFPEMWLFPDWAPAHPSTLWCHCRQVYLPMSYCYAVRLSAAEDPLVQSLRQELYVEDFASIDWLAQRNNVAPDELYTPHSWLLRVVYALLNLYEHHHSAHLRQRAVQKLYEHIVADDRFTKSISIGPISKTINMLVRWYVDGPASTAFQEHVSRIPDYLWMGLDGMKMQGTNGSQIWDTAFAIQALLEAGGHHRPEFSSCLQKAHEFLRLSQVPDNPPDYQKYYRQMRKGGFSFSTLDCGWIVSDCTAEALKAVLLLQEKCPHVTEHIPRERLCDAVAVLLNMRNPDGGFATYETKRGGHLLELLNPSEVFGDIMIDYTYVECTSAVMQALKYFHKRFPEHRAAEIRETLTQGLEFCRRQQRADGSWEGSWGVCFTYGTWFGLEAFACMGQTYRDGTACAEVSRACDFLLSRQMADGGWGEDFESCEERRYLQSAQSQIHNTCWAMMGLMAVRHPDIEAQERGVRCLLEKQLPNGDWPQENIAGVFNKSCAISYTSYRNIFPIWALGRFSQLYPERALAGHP
# Method: Recombinant LSS purified from E. coli converted OS to lanosterol in a time- and dose-dependent manner. Of note, lanosterol production was saturated over time, which may be the consequence of substrate depletion or product inhibition. Regardless, we evaluated enzymatic activity over 30 minutes with 64 μM of substrate, conditions under which the reaction remained linear. […] Similar experiments with three different analogs (3, 6, 14) support the notion that inhibition of Lss enzyme activity correlates with anti-GBM activity in Mut6 cells. It was notable that the concentration of compound required to inhibit LSS activity in vitro is substantially higher than the concentration required to block cell growth. One possible explanation for this difference is that the conditions of the in vitro reaction, which includes non-ionic detergents in an aqueous buffer, influence substrate or compound solubility or binding.
# An outstanding question regarding the shunt pathway is how LSS can still convert DOS into EPL in the presence of high concentrations of an inhibitor. […] To address this question, we assessed the efficacy of in vitro conversion of DOS to EPL by LSS. […] Therefore, the conversion of DOS to EPL by LSS in the presence of MM0299 is not simply explained by an increased affinity LSS for DOS. […]
# UTSW63 = assay: rescue of toxicity by NB-598 in UTSW63; type: cell-based, human; details: lower doses of NB-598
# Method: Like Mut6 cells, both UTSW63 and UTSW71 grow as neurospheres in serum-free medium (data not shown). […] MM0299 toxicity in the two human GSC lines is completely rescued by exogenous MCD-conjugated lanosterol or cholesterol. A naturally occurring mechanism for the import of extracellular cholesterol is the uptake of circulating low-density lipoprotein (LDL). Therefore, we investigated whether human LDL could rescue MM0299 toxicity in human GBM cells. Addition of 20 μg/ml human LDL completely rescued the toxicity of 1 in both UTSW63 and UTSW71 cells. To investigate the role of the shunt pathway in MM0299 toxicity, we again turned to the tool compound NB-598.
smiles,measurement,setting,value
"COc1ccc(C(=O)COc2ccc(N3C(=O)[C@@H]4[C@@H]5C=C[C@@H]([C@H]6C[C@@H]56)[C@@H]4C3=O)cc2)cc1 [compound 1, (3aR,4R,4aR,5aS,6S,6aS)-2-(4-(2-(4-Methoxyphenyl)-2-oxoethoxy)phenyl)-4,4a,5,5a,6,6a-hexahydro-4,6-ethenocyclopropa[f]isoindole-1,3(2H,3aH)-dione]",IC50,"recombinant human LSS; 30 minutes, 64 μM substrate, read-out: IC50, LSS in vitro activity (OS to lanosterol)",2.22 µM
same,IC50,"recombinant human LSS; in vitro, read-out: IC50, DOS conversion to EPL by LSS",1.6 µM
same,"increase in IC50 with NB-598, UTSW63",UTSW63,15.0 fold
